Assay results as given in patent US8409560B2, “Solid dispersion formulations and methods of use thereof” (Zalicus Pharmaceuticals Ltd., priority 2011, dated 2013).

Legend:
[1] = Adverse effects at doses of up to 1,600 mg; format: in vivo
Text: Yet, compound 1 is also known to have decreased oral bioavailability in the fasted state, as compared to the fed state. Accordingly, the invention provides formulations to increase the oral bioavailability or to reduce patient-to-patient variability in pharmacokinetic behavior of compound 1, compound 2, or a salt thereof. Generally, amorphous forms of a drug are more readily absorbed within the gastric and intestinal system and, thus, have increased bioavailability, as compared to crystalline forms of the drug. These formulations include use of a solid dispersion system to provide a matrix polymer capable of maintaining therapeutically effective amounts of compound 1, compound 2, or a salt thereof, in an amorphous form.

[2] = Fed-fasted pharmacokinetics and relative oral bioavailability of compound 1 HCl salt, micronized formulation (previously determined); conditions: human, in vivo
Text: The fed-fasted pharmacokinetic data were collected using a “normal fat” meal consisting of toast with 1 pat of butter, a banana, 2% milk, apple juice, and Honey Nut Cheerios®, where the meal has about 501 calories with 99 calories from fat, 346 calories from carbohydrates, and 56 calories from protein; and using a “high fat” meal consisting of 2 eggs fried in butter, 2 strips of bacon, 2 slices of toast with butter, 4 ounces of hash brown potatoes and 8 ounces of whole milk, where the meal has about 1,000 calories with 500-600 calories from fat, 250 calories from carbohydrates, and 150 calories from protein.
The relative oral bioavailability of compound 1 (HCl salt) has been previously determined in various fed and fasted states in a micronized formulation. This micronized formulation included the following for a 100 mg dose in a #1 HPMC (white opaque) capsule: compound 1 HCl micronized (100.00 mg), Lactose Fast Flo® Fast Flo® composed of a spray-dried mixture of crystalline and amorphous lactose monohydrate (184.80 mg); sodium starch glycolate (19.20 mg); polysorbate 80 (14.40 mg); purified water (used as the granulating fluid and was removed during processing) (QS); and magnesium stearate (1.60 mg), where the resultant fill weight was 320.00 mg. […]

[3] = Dissolution of solid dispersions, gastric-to-FaSSIF media transition at 13 minutes; format: physicochemical; conditions: unformulated; pH 1.0-to-6.5
Description: FIGS. 1A-1H are graphs showing the dissolution rate in gastric media for solid dispersion formulations having 20% (w/w) loading of compound 1 and a gastric-to-FaSSIF (pH 1.0-to-6.5) media transition at 13 minutes. […]
Various formulations were tested to reduce precipitation. As shown in FIGS. 1A-1H, solubility was measured for the following formulations: carboxymethylethyl cellulose (CMEC, FIG. 1A), cellulose acetate phthalate (CAP, FIG. 1B), hydroxypropylmethyl cellulose acetate succinate M grade (HPMCAS-M, FIG. 1C), polyvinyl acetate phthalate (PVAP, FIG. 1D), methacrylic acid-methyl methacrylate copolymer (Eudragit® L 100, FIG. 1E), polyethylene glycol-polyvinylcaprolactam-polyvinylacetate copolymer (Soluplus®, FIG. 1F), hydroxypropylmethyl cellulose phthalate (HPMCP-H55, FIG. 1G), and polyvinylpyrrolidone vinylacetate copolymer (PVP-VA, FIG. 1H). […]
Further tests were conducted with different % loading of compound 1. Dissolution rates were measured for formulations have 35% (w/w) loading (FIGS. 2A-2C) and 50% (w/w) loading (FIGS. 3A-3D). CAP, HPMCAS-M, Eudragit® L 100, and PVAP were further analyzed for these tests. […]

O=C(CC(c1ccccc1)c1ccccc1)N1CCN(C(c2ccccc2)c2ccccc2)CC1 [Compound 1, 1-(4-benzhydrylpiperazin-1-yl)-3,3-diphenylpropan-1-one]
adverse effects [1]: no adverse effects | Tmax [2]: < 2 h | behaviour in FaSSIF media following exposure to gastric media [3]: rapidly precipitated
